Structures can show the parent of a compound that is named as a salt. Blank lines part the entries; values can stand above or below the compound they belong to.
Key:
[1] = TEAC assay using ABTS radical; details: 6 min, ratio of slopes to trolox (melatonin dissolved in EtOH); for TEAC from DMSO: stock in DMSO diluted with PBS pH 7.4, 37 °C; for TEAC from THF: stock in THF diluted with PBS pH 7.4, 37 °C
Protocol: This method uses a redox reaction between ABTS^•+ radical cation and the examined antioxidants, which act as the reducing agents. […] As the carotenoids and the conjugates are poorly soluble in water, they were dissolved first either in small amounts of freshly distilled tetrahydrofuran (THF) or in dimethylsulfoxide (DMSO), and these stock solutions were diluted with phosphate-buffered saline (PBS) to the final nominal concentration.
The TEAC values were determined in isotonic phosphate buffer of pH 7.4. The buffer solution was made by dissolving 9.55 g of DPBS powder in distilled water to form 1L of solution (composition: 0.138 M NaCl, 0.0027 M KCl, 0.0081 M Na2HPO4, 0.0015 M KH2PO4). The assay was performed according to a literature process with slight modifications. The ABTS^•+ radical cation was produced by reacting 7 mM 2,2′-azino-bis(3-ethylbenzothiazoline-6-sulfonic acid) and 2.45 mM potassium persulfate in water. The stock ABTS^•+ solution was prepared 12–16 h before the experiments, and stored at room temperature in dark. The absorbance of the ABTS^•+ solution was set to 0.70 ± 0.05 at 734 nm by a ca. 100-fold dilution with phosphate-buffered saline (PBS). […] The stock solutions were diluted with PBS such that equal amounts of the diluted solutions were added to the ABTS^•+ reagent to obtain final antioxidants concentrations of 0.3125, 0.625, 1.25, 2.50, 3.75, 5 μM, respectively. In the blank (0 μM), the solutions of the antioxidants were substituted with THF or DMSO.
The antioxidants were incubated with ABTS^•+ solution at 37 °C for 6 min. During the reaction of ABTS^•+ with the antioxidants the absorbance of the solution decreases. The percentage inhibition of absorbance at 734 nm was calculated as (A0 − Aantioxidant)/A0, where A0 is the absorbance of the ABTS^•+ solution and Aantioxidant is the absorbance measured after the addition of the antioxidant. The determinations were carried out at each concentration in triplicate. The calculated values were plotted against the final concentration of the antioxidants. The slopes of the curves were compared with that for trolox, the TEAC value is the ratio of the slopes for the antioxidant and for trolox.

[2] = FRAP assay for the antioxidant capacity; set-up: key to FRAP: slope of concentration-absorbance line divided by Trolox slope; details: stock in THF, acetate buffer pH 3.0, 37 °C, 15 min; ratio of slopes to trolox (melatonin in EtOH)
Protocol: In the FRAP method the antioxidant reduces Fe^3+ to Fe^2+ in an acidic medium. These experiments were performed in an acetate buffer of pH 3.0, the stock solutions of the examined antioxidants were prepared in THF. The antioxidant capacities were compared to that of Trolox as a standard, just like in the ABTS assays.
A modified literature process was used. The FRAP reagent should also be prepared freshly each day. 2,4,6-Tris(2-pyridyl)-s-triazin (TPTZ) was dissolved in a 200 mM HCl solution and diluted with water to get a final 40 mM HCl and 10 mM TPTZ concentration. For the preparation of the FRAP reagent 30 mL of 20 mM FeCl3 solution and 30 mL of 10 mM TPTZ solution were mixed, and 300 mL of 300 mM acetate buffer with pH 3.0 was added (a pH lower than usual was used to avoid the precipitation of the TPTZ). The FRAP reagent was incubated at 37 °C for 15 min. 150 μL of antioxidant dissolved in THF was mixed with 2.85 mL FRAP reagent solution, and incubated at 37 °C for 15 min in dark. Measurements were carried out at each antioxidant concentration (0, 7.5; 10; 12.5; 15; 17.5 μM final concentration) in triplicate. In the 0 μM solution the antioxidant solution was substituted with acetate buffer (pH 3.0). The FRAP was determined at 600 nm: the absorbance values were plotted as a function of concentration of the sample compounds and that of Trolox for the standard reference data. The FRAP values were calculated as in the ABTS assays, i.e., the slope of the concentration-absorbance lines for the carotenoid derivatives was divided by that for the trolox.

[3] = Study of aggregation by UV-Vis spectrophotometry; format: physicochemical
Excerpt: It has been known for a long while that carotenoids or their derivatives can be prone to supramolecular organization in water or water-organic solvent mixtures. This behaviour is especially interesting because this higher organization can modulate or alter biological properties of carotenoids, as well [40]. A tendency to form supramolecular structures can be tested by recording the UV spectra in an organic solvent and increasing the ratio of water in the sample. […] We have some recent experience of such behaviour of carotenoid-flavonoid conjugates.
All of our adducts were tested with the method above using tetrahydrofurane (THF) or dimethylsulfoxide (DMSO) with increasing ratio of phosphate-buffered saline (PBS), which was the medium of the antioxidant measurements. […]
1. Study of Aggregation by UV-Vis Spectrophotometry
Starting from THF solutions: each conjugate was dissolved in freshly distilled THF and the solutions were diluted
either with THF or THF-PBS mixtures to obain final solutions of identical carotenoid concentration. […]
Figure S1. UV-spectra of 8’-apo-β-carotenol succinate ( 6) ( a) in THF and in THF-PBS mixtures ( 1:1 , 1:3); (b) in DMSO
Figure S2. UV-spectra of zeaxanthin bissuccinate ( 7) ( a) in THF and in THF-PBS mixtures ( 1:1 , 1:3); (b) in DMSO and
Figure S3. UV-spectra of zeaxanthin monosuccinate ( 11) ( a) in THF and in THF-PBS mixtures ( 1:1 , 1:3); (b) in DMSO […]

[4] = Hydrodynamic diameter and colloidal stability of aggregates by dynamic light scattering; format: physicochemical; details: for mean size (hydrodynamic diameter) / zeta potential: 37 °C; for PDI: sd^2/mean size^2
Protocol: In contrary, all spectra gave a hypsochromic shift and loss of fine-structure when the DMSO solutions were diluted with PBS, which refers to the formation of H-type (card-pack) aggregates (Figures S1–S12). Since DMSO-containing aqueous systems are more suitable for biological studies, we examined these solution by dynamic light scattering (DLS) spectroscopy to gain more information about the particles. The concentrations of the examined solutions were the same as used in the ABTS/TEAC measurements (0.3125–5.00 μM, see next section).
Size determination of aggregates and the colloidal stability of the sample dispersions were determined by dynamic light scattering measurements, where the hydrodynamic diameter of particles, and zeta potential values were collected. The number-weighted size distribution indicated one main peak in each case, the polydispersity index (PDI) was calculated as sd^2/mean size^2. For the particle size analysis Malvern Zetasizer Nano S instrument and for the zeta potential determination Malvern Zetasizer Nano Z instrument were used (Malvern Panalytical Ltd., Great Malvern, Worcestershire, UK). The measurements were carried out in autocorrelation mode, and the following parameters were kept constant: scattering angle 173°, attenuator 11 and its factor 0.0146, measurement position 4.65 mm. The concentrations of sample dispersions were between 0.3125 and 5 µM. The dispersion medium was PBS. Each samples was examined after 6 min incubation period at 37 °C.

[5] = 0.3125 μM in PBS from DMSO stock
[6] = 0.625 μM in PBS from DMSO stock

melting point: 123 to 124 °C
Compound: CC1=C(/C=C/C(C)=C/C=C/C(C)=C/C=C/C=C(C)/C=C/C=C(\C)COC(=O)CCC(=O)O)C(C)(C)CCC1 (as salt: succinate) [Compound 6, 8′-Apo-β-carotenol succinate]

melting point: 152 to 153 °C
Compound: CC1=C(/C=C/C(C)=C/C=C/C(C)=C/C=C/C=C(C)/C=C/C=C(C)/C=C/C2=C(C)C[C@@H](OC(=O)CCC(=O)O)CC2(C)C)C(C)(C)C[C@H](OC(=O)CCC(=O)O)C1 (as salt: succinate) [Compound 7, Zeaxanthin bissuccinate]

Compound: CC1=C(/C=C/C(C)=C/C=C/C(C)=C/C=C/C=C(C)/C=C/C=C(C)/C=C/C2=C(C)C[C@@H](OC(=O)CCC(=O)O)CC2(C)C)C(C)(C)CCC1 (as salt: succinate) [Compound 8, β-Cryptoxanthin succinate]
melting point: 142 to 143 °C

melting point: 143 to 144 °C
Compound: CC1=C(/C=C/C(C)=C/C=C/C(C)=C/C=C/C=C(C)/C=C/C=C(C)/C=C/C(=O)[C@]2(C)C[C@@H](OC(=O)CCC(=O)O)CC2(C)C)C(C)(C)C[C@H](OC(=O)CCC(=O)O)C1 (as salt: succinate) [Compound 9, Capsanthin bissuccinate]

melting point: 148 to 149 °C
Compound: CC1=C[C@H](OC(=O)CCC(=O)O)CC(C)(C)[C@H]1/C=C/C(C)=C/C=C/C(C)=C/C=C/C=C(C)/C=C/C=C(C)/C=C/C1=C(C)C[C@@H](OC(=O)CCC(=O)O)CC1(C)C (as salt: succinate) [Compound 10, Lutein bissuccinate]

Compound: CC1=C(/C=C/C(C)=C/C=C/C(C)=C/C=C/C=C(C)/C=C/C=C(\C)C=O)C(C)(C)CCC1 [8'-Apo-β-carotenal, 8′-apo-β-carotenal, reference compound]
TEAC from DMSO [1]: 1.19 | TEAC from THF [1]: 0.953 | FRAP [2]: 0.443

Compound: CC1=C(/C=C/C(C)=C/C=C/C(C)=C/C=C/C=C(C)/C=C/C=C(C)/C=C/C2=C(C)C[C@@H](O)CC2(C)C)C(C)(C)C[C@H](O)C1 [Compound 2, zeaxanthin, reference compound]
TEAC from DMSO [1]: 2.70 | TEAC from THF [1]: 2.016 | FRAP [2]: 0.351

Compound: CC1=C(/C=C/C(C)=C/C=C/C(C)=C/C=C/C=C(C)/C=C/C=C(C)/C=C/C2=C(C)C[C@@H](O)CC2(C)C)C(C)(C)CCC1 [Compound 3, cryptoxanthin, reference compound]
TEAC from DMSO [1]: 1.61 | TEAC from THF [1]: 2.062 | FRAP [2]: 0.441

Compound: CC1=C(/C=C/C(C)=C/C=C/C(C)=C/C=C/C=C(C)/C=C/C=C(C)/C=C/C(=O)[C@]2(C)C[C@@H](O)CC2(C)C)C(C)(C)C[C@H](O)C1 [Compound 4, capsanthin, reference compound]
TEAC from DMSO [1]: 0.62 | TEAC from THF [1]: 1.036 | FRAP [2]: 0.197

Compound: CC1=C[C@H](O)CC(C)(C)[C@H]1/C=C/C(C)=C/C=C/C(C)=C/C=C/C=C(C)/C=C/C=C(C)/C=C/C1=C(C)C[C@@H](O)CC1(C)C [Compound 5, lutein, reference compound]
TEAC from DMSO [1]: 1.02 | TEAC from THF [1]: 1.571 | FRAP [2]: 0.161

type of aggregates formed ([3]; from THF:aqueous solutions): J-type (head-to-tail) aggregates | change of UV spectrum with increasing ratio of PBS ([3]; starting from THF solutions): bathochromic shift | mean size (hydrodynamic diameter) [4, 5]: 388.20 nm | zeta potential [4, 5]: 16.0 mV | PDI ([4]; 0.3125 μM in PBS): 0.0336 | mean size (hydrodynamic diameter) [4, 6]: 551.20 nm | zeta potential [4, 6]: 15.4 mV | PDI ([4]; 0.625 μM in PBS): 0.0410 | mean size (hydrodynamic diameter) ([4]; 1.25 μM in PBS from DMSO stock): 364.50 nm | zeta potential ([4]; 1.25 μM in PBS from DMSO stock): 2.2 mV | PDI ([4]; 1.25 μM in PBS): 0.0270 | mean size (hydrodynamic diameter) ([4]; 2.5 μM in PBS from DMSO stock): 638.90 nm | zeta potential ([4]; 2.5 μM in PBS from DMSO stock): 2.2 mV | PDI ([4]; 2.5 μM in PBS): 0.0217 | mean size (hydrodynamic diameter) ([4]; 3.75 μM in PBS from DMSO stock): 79.01 nm | zeta potential ([4]; 3.75 μM in PBS from DMSO stock): 0.7 mV | PDI ([4]; 3.75 μM in PBS): 0.0112 | mean size (hydrodynamic diameter) ([4]; 5 μM in PBS from DMSO stock): 565.30 nm | zeta potential ([4]; 5 μM in PBS from DMSO stock): 1.1 mV | PDI ([4]; 5 μM in PBS): 0.0311 | hydrodynamic diameter of the aggregates ([4]; over the concentrations 0.3125–5.00 μM): 400–600 nm | melting point: 156 to 157 °C
Compound: COc1ccc2[nH]cc(CCNC(=O)CNC(=O)CCC(=O)O[C@@H]3CC(C)=C(/C=C/C(C)=C/C=C/C(C)=C/C=C/C=C(C)/C=C/C=C(C)/C=C/C4=C(C)C[C@@H](O)CC4(C)C)C(C)(C)C3)c2c1 [Compound 13, Zeaxanthin-monomelatonin conjugate]
TEAC from DMSO [1]: 1.34 | TEAC from THF [1]: 1.434 | FRAP [2]: 0.152

From article PMC9369794 (Molecules, 2022)
